Data on three compounds can be found in ChEMBL document CHEMBL5696442, “Discovery of type II inhibitors of TGFβ-activated kinase 1 (TAK1) and mitogen-activated protein kinase kinase kinase kinase 2 (MAP4K2)” (J Med Chem, 2015).

One may read the inhibition as the change of the read-out against control, counted positive when it falls. As usually defined, the residual activity is the signal under treatment as a percentage of the control signal.

Assay [1] concerns the target T1, Dual specificity mitogen-activated protein kinase kinase 4 (Homo sapiens) (UniProt P45985).
T1 sequence (whole entry): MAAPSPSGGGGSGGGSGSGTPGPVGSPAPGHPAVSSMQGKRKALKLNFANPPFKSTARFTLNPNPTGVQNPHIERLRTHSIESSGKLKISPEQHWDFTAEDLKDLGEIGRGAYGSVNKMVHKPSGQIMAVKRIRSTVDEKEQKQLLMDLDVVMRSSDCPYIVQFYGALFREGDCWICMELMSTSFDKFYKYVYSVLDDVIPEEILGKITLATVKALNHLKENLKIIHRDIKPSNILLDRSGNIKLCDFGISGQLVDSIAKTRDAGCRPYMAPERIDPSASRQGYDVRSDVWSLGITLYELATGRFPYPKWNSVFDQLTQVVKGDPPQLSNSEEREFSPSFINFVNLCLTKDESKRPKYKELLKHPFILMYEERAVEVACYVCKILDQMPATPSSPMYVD
Briefly: Inhibition of MAP2K4 ACT labeling site in human Huh-7 cell lysate at 1 uM by KiNativ Profiling analysis relative to control. The assay is classed as subcellular.

Assay [2] has as its target Mitogen-activated protein kinase kinase kinase 20 (Homo sapiens, UniProt Q9NYL2). Briefly: Inhibition of ZAK Lys1 labeling site in human Huh-7 cells at 1 uM by KiNativ Profiling analysis relative to control. In kind it is cell-based.
Assay [3] addresses Serine/threonine-protein kinase 38-like (Homo sapiens) (UniProt Q9Y2H1). Briefly: Inhibition of NDR2 (unknown origin) at 1 uM by Ambit Kinomescan binding assay relative to control; values are per cent of control.
For assay [4], the target named is Serine/threonine-protein kinase tousled-like 2 (Homo sapiens) (UniProt Q86UE8). Briefly: Inhibition of TLK2 Lys1 labeling site in human A-375 cells at 0.5 uM by KiNativ Profiling analysis relative to control. The assay is classed as cell-based.
The target in assay [5] is Glycogen synthase kinase-3 beta (Homo sapiens) (UniProt P49841). Briefly: Inhibition of GSK3B (unknown origin) at 1 uM by Ambit Kinomescan binding assay relative to control; values are per cent of control.
Assay [6] concerns the target T2, Scaffold protein ILK (Homo sapiens) (UniProt Q13418).
T2 sequence (whole entry): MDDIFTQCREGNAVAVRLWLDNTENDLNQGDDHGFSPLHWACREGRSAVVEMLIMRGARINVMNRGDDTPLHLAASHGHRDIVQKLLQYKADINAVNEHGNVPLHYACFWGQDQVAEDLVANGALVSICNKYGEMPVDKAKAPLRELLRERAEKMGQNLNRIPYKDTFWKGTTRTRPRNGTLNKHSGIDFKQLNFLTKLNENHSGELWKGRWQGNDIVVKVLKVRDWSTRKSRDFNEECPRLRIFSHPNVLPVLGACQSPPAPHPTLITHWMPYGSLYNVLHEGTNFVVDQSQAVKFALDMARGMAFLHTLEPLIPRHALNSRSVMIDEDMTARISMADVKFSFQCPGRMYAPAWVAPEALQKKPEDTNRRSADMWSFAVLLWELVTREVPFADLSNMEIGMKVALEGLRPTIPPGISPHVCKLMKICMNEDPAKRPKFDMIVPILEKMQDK
Briefly: Inhibition of ILK Lys1 labeling site in human A-375 cells at 0.05 uM by KiNativ Profiling analysis relative to control. The assay is classed as cell-based.

Assay [7] has as its target Serine/threonine-protein kinase Nek6 (Homo sapiens) (UniProt Q9HC98). Briefly: Inhibition of NEK6 (unknown origin) at 1 uM by Ambit Kinomescan binding assay relative to control; values are per cent of control.
Assay [8] concerns Tyrosine-protein kinase ABL1 (Homo sapiens), P00519 [F317I]. Briefly: Inhibition of phosphorylated ABL1 F317I mutant (unknown origin) at 1 uM by Ambit Kinomescan binding assay relative to control; values are per cent of control.
Assay [9] concerns the target TRAF2 and NCK-interacting protein kinase (Homo sapiens) (UniProt Q9UKE5). Briefly: Inhibition of TNIK (unknown origin) at 10 uM by Ambit Kinomescan binding assay relative to control; values are per cent of control.
Assay [10] addresses Cyclin-dependent kinase 7 (Homo sapiens) (UniProt P50613). Briefly: Inhibition of CDK7 (unknown origin) at 10 uM by Ambit Kinomescan binding assay relative to control.
Assay [11] has as its target Peripheral plasma membrane protein CASK (Homo sapiens) (UniProt O14936). Briefly: Inhibition of CASK K1 labeling site in human Huh-7 cells at 1 uM by KiNativ Profiling analysis relative to control.
Assay [12] deals with Serine/threonine-protein kinase B-raf (Homo sapiens, UniProt P15056). Briefly: Inhibition of BRAF K2 labeling site in human Huh-7 cells at 10 uM by KiNativ Profiling analysis relative to control. In kind it is cell-based.
Assay [13] deals with Insulin receptor-related protein (Homo sapiens) (UniProt P14616). Briefly: Inhibition of INSRR (unknown origin) at 10 uM by Ambit Kinomescan binding assay relative to control.
For assay [14], the target named is T3, Dual specificity mitogen-activated protein kinase kinase 6 (Homo sapiens) (UniProt P52564).
T3 sequence (whole entry): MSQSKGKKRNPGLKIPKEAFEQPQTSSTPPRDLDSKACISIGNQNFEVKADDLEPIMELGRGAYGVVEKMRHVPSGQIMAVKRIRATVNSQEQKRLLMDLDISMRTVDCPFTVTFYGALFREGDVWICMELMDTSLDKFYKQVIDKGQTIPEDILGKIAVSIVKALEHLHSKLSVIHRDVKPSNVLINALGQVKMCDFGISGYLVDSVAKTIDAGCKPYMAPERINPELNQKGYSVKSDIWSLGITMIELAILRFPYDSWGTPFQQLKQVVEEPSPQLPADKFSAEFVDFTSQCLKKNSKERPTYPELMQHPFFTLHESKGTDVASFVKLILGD
Briefly: Inhibition of MAP2K6 K2 labeling site in human Huh-7 cells at 10 uM by KiNativ Profiling analysis relative to control. In kind it is cell-based.

In assay [15] the target is Tyrosine-protein kinase CSK (Homo sapiens, UniProt P41240). Briefly: Inhibition of CSK ACT labeling site harbouring VSDFGLTKEASSTQDTGK in human A-375 cells at 0.05 uM by KiNativ Profiling analysis relative to control. In kind it is cell-based.
Assay [16] relates to MEF. Briefly: Inhibition of IL-1alpha induced p105 phosphorylation level in mouse MEF cells preincubated for 1 hr followed by IL-1 alpha stimulation and measured after 30 mins by Western blot analysis. In kind it is functional, cell-based. The settings on record: dose 0.01-10 µM.
For assay [17], the target named is Tyrosine-protein kinase Fer (Homo sapiens, UniProt P16591). Briefly: Inhibition of FER K1 labeling site in human Huh-7 cells at 10 uM by KiNativ Profiling analysis relative to control. In kind it is cell-based.
Assay [18] has as its target Serine/threonine-protein kinase 36 (Homo sapiens) (UniProt Q9NRP7). Briefly: Inhibition of STK36 (unknown origin) at 10 uM by Ambit Kinomescan binding assay relative to control; values are per cent of control.

Chain of Tyrosine-protein kinase Fer (P16591 whole entry, looked up): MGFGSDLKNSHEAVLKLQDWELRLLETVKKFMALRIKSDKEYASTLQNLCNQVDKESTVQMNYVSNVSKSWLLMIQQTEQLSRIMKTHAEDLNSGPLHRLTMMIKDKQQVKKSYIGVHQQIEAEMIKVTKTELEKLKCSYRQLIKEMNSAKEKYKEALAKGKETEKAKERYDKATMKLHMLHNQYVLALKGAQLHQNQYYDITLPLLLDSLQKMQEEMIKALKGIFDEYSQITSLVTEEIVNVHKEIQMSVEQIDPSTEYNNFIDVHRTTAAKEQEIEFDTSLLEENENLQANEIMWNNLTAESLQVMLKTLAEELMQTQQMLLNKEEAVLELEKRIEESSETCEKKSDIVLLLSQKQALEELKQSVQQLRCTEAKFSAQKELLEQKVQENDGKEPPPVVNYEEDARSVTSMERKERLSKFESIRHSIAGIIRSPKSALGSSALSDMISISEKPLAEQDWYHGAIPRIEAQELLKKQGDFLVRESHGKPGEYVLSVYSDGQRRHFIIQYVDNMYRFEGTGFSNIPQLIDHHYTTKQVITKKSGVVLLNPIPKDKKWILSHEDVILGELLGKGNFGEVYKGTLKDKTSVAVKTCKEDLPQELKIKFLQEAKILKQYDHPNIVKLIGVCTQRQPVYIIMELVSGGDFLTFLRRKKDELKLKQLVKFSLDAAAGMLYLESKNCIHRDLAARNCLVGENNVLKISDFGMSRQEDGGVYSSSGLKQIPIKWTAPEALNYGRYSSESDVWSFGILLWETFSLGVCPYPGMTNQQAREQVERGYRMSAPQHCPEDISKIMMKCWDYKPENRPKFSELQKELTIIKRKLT
Chain of Cyclin-dependent kinase 7 (Homo sapiens) (P50613 whole entry): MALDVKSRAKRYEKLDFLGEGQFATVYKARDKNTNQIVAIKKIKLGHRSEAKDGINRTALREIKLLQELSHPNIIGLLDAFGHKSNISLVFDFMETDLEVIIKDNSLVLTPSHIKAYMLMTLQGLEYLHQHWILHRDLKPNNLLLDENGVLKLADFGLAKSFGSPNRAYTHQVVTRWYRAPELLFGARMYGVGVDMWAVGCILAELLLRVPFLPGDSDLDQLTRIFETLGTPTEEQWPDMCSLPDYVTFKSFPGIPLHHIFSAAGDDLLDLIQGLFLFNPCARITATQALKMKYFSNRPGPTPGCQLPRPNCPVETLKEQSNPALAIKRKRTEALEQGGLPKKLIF
Chain of Serine/threonine-protein kinase tousled-like 2 (Homo sapiens) (Q86UE8 whole entry, looked up): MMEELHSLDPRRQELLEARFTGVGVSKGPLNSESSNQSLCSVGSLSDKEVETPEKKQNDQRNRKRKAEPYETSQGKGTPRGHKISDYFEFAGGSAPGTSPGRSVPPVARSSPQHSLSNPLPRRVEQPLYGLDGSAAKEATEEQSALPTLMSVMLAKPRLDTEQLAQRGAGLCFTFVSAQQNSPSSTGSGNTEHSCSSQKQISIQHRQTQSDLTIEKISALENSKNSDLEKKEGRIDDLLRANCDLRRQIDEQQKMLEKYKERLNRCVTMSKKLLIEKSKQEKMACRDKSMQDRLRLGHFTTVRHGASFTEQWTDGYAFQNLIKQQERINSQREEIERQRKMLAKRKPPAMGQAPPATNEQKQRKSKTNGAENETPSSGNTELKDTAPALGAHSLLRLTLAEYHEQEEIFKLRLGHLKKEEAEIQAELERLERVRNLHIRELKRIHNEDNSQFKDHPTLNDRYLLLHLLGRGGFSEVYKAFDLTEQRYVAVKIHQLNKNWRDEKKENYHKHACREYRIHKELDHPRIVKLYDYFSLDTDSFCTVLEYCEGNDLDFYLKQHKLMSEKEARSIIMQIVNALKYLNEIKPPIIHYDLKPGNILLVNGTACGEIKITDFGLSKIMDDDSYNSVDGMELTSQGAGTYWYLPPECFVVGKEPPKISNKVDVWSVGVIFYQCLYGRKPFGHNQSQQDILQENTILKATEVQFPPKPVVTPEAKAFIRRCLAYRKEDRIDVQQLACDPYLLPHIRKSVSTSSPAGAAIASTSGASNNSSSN
Chain of Serine/threonine-protein kinase Nek6 (Homo sapiens) (Q9HC98 whole entry): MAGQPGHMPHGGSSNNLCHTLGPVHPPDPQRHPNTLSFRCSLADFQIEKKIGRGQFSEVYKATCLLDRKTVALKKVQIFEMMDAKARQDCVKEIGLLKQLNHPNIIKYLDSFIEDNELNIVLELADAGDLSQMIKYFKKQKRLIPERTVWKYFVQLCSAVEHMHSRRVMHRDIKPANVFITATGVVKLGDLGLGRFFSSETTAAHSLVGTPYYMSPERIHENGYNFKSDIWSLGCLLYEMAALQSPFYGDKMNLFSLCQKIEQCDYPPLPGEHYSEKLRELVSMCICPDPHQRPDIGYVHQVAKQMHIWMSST
Chain of Tyrosine-protein kinase CSK (P41240 2-450 limits assumed): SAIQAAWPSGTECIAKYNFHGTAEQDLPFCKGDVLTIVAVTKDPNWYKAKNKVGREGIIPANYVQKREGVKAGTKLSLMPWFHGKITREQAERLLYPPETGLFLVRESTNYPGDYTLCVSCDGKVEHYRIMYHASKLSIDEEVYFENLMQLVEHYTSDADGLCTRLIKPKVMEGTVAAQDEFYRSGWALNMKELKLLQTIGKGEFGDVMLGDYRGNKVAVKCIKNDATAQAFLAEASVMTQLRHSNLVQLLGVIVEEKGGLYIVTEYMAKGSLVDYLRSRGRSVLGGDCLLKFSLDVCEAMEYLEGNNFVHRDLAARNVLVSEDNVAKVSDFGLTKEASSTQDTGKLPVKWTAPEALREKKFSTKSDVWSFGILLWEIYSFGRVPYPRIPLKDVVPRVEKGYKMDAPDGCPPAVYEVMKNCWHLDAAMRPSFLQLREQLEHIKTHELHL
Chain of Mitogen-activated protein kinase kinase kinase 20 (Q9NYL2 2-800 limits assumed): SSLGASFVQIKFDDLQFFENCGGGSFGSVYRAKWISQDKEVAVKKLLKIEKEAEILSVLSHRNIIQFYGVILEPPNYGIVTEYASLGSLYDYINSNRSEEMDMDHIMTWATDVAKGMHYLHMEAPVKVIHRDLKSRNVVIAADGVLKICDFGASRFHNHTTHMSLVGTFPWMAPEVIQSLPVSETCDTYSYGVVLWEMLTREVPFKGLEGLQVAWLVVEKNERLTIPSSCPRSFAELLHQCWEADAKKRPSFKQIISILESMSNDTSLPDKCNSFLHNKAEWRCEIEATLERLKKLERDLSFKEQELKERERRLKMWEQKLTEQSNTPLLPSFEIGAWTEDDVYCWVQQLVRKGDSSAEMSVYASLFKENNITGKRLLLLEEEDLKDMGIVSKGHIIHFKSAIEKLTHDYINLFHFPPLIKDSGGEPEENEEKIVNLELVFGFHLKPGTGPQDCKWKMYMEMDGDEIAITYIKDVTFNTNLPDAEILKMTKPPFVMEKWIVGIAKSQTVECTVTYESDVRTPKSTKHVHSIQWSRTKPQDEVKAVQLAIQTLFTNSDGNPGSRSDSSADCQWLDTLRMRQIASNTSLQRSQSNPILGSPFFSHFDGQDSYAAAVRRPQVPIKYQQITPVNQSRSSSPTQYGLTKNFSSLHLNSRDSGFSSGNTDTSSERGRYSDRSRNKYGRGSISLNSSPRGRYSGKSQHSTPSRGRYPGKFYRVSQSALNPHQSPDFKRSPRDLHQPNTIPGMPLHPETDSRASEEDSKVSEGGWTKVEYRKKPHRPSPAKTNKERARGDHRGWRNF
Chain of Insulin receptor-related protein (Homo sapiens) (P14616 27-742 limits assumed): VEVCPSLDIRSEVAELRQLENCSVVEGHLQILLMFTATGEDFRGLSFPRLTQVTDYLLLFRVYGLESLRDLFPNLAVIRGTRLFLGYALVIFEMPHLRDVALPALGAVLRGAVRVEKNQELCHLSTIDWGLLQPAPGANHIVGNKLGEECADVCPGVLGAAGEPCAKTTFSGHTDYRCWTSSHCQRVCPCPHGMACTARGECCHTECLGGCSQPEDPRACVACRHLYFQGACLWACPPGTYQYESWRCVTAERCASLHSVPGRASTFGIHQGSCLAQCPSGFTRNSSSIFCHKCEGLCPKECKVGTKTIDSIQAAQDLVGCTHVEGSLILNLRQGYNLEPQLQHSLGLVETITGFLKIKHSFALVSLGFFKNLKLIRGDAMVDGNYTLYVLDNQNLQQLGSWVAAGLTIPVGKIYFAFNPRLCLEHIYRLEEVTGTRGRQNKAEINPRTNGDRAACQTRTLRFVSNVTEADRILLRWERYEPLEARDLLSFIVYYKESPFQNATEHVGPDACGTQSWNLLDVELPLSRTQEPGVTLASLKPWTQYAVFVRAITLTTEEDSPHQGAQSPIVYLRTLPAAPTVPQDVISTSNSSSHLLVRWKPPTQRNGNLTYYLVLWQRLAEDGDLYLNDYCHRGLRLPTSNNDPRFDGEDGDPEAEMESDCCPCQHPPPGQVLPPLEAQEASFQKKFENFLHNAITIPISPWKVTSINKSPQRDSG
Chain of Insulin receptor-related protein (Homo sapiens) (P14616 747-1297 limits assumed): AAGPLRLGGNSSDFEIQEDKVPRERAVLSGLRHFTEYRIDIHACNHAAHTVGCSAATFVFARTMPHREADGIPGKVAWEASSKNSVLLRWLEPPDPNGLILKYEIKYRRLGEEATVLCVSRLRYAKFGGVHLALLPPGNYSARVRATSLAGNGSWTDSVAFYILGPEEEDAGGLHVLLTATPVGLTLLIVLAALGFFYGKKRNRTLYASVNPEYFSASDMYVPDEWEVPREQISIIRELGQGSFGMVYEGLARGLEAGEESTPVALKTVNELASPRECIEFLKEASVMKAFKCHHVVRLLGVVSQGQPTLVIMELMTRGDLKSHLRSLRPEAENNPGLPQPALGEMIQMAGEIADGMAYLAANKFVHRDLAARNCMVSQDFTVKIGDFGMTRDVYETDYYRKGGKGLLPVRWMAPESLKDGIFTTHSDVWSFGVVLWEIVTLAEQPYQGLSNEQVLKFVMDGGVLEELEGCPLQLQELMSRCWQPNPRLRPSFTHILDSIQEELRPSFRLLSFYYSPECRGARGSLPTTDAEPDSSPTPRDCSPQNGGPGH

For `CNc1cc(Oc2cc(C(=O)Nc3cc(N4CCN(C)CC4)cc(C(F)(F)F)c3)ccc2C)ncn1`, the results for the inhibition in assay [1] and in assay [2] were -2.8% and 13.8%, respectively.

Take `CCN1CCN(Cc2ccc(NC(=O)c3ccc(C)c(/C=C/c4cnc5[nH]ccc5c4OC)c3)cc2C(F)(F)F)CC1`: the residual activity in assay [3] was 79%; in [5] it was 100%; in assay [7] it was 100%. Besides, the inhibition was 30.2% in assay [4] and 3.9% in assay [6]. Further, the percent of control in assay [8] came out at 22%.

Take `CCN1CCN(Cc2ccc(NC(=O)c3ccc(C)c(Oc4ccnc5[nH]ccc45)c3)cc2C(F)(F)F)CC1`: the results for the residual activity in assay [9] and in assay [18] were 8.2% and 0.2%, respectively. The inhibition in assay [10] was 2.4%; in assay [11], 3.8%; in [12], 5.2%; in assay [13], 23%; in assay [14], 19.3%; in [15], 23.1%. For the same compound, the inhibition entry in assay [16] is “Dose-Dependent Effect”; in assay [17] it was 83.3%.
